Results taken from US11844802B2, “Compounds and compositions for ossification and methods related thereto” (Emory University, priority 2010, dated 2023).

Assays:
[1] = test system: BMP-specific Smad1-driven 9×GCCG reporter; assay: BMP-2 induced Smad1-driven dual-luciferase reporter assay in C2C12 cells; format: cell-based, Mouse; conditions: BMP-2 1 ng/ml
Description: A cell-based method was optimized to monitor BMP-2 induced responses. […] One can monitor transcriptional activity driven by activated Smad1 in C2C12 cells in a cell-based assay utilizing a Smad1-specific luciferase reporter plasmid containing a multimerized -GCCG- motif (9 copies). […] A concentration range of BMP-2 required for activating the reporter assay was established.
A BMP-specific Smad1-driven 9×GCCG (a consensus binding sequence for Smad1) reporter plasmid was used. The C2C12 cells were trypsinized and seeded in triplicate wells at 50,000 cells/well in 12-well plates on day 1. On day 2, the cells were cotransfected with the 9×GCCG-reporter construct and the renilla-luciferase control vector using SuperFect (Qiagen, Valencia, CA) for 24 hrs. […] On day 5, the luciferase activities were measured in 20 μl of cell-lysate using the dual-luciferase assay system (Promega, Madison, WI) with a luminometer (LumiCount™; Packard Bioscience, Meriden, CT) following the manufacturer's instructions. The luciferase activity was expressed as relative units of luciferase (RUL; a ratio of firefly luciferase to renilla luciferase activity). […]

[2] = test system: alkaline phosphatase mRNA; assay: BMP-2 induced alkaline phosphatase mRNA level, quantitative real-time RT-PCR in C2C12 cells; format: cell-based, Mouse; conditions: for increase in alkaline phosphatase mRNA by BMP-2 alone: compared to no treatment control
Description: (§1) Mouse C2C12 cells and Dulbecco's modified Eagle's medium (DMEM) were purchased from ATCC (Manassas, VA). The non-heat inactivated fetal bovine serum (FBS) was purchased from HyClone Laboratories, Inc. (Logan, UT). The C2C12 cells at passages 5 to 10 were subcultured in T-75 cm^2 flasks in DMEM supplemented with 10% FBS at 37° C. in 5% CO2 with humidification. When the flasks reached 80% confluence, the cells were trypsinized and seeded in triplicate at 200,000 cells/well in a 6-well plate for quantitative real-time RT-PCR and alkaline phosphatase (ALP) assays or at 50,000 cells/well in a 12-well plate for the dual-luciferase reporter assay.
(§2) The C2C12 cells were plated at a density of 200,000 cells/well in 6-well plates and grown overnight in DMEM containing 10% FBS. On day 2, the culture medium was replaced with DMEM containing 2% FBS and the cells were treated with various concentrations of Smurf1-interacting compound (diluted from 10 mg/ml stock solutions prepared in DMSO) for 24 hours. In control cultures, a DMSO solvent concentration of 0.01% (v/v) was applied. On day 3, medium was replaced with fresh DMEM containing 2% FBS and the cells were treated with BMP-2 for 24 hours.
(§3) Total RNA was harvested using the RNeasy Mini Kit according to the manufacturer's instructions (Qiagen, Valencia, CA). The harvested RNA was digested with RNase-free DNase I (Qiagen, Valencia, CA) to remove DNA contamination. The concentration of the isolated RNA was determined by measuring the absorbance at 260 nm wave length with a spectrophotometer (Model DU 640, Beckman Coulter, Inc. Brea, CA). The ratio of A260/A280 was between 1.6 and 1.8. Reverse transcription was carried out to synthesize cDNA in a 100 μl volume with 2 μg of total RNA, 10×RT buffer, 5.5 mM MgCl2, 2 mM dNTP mixture, 0.125 μM oligo d(T), 0.125 μM random primer, 40 Units of RNase inhibitor, and 125 Units of MultiScribe™ (Applied Biosystems, Foster City, CA) for 10 minutes at 25° C., 30 minutes at 48° C., and 5 minutes at 95° C.
Quantitative real-time RT-PCR was performed to determine the mRNA expression level of ALP and osteocalcin. The sequences of the primers were as follows: ALP (forward, 5′-TCAGGGCAATGAGGTCACATC-3′; (SEQ ID NO: 6), reverse, 5′-CAC AAT GCC CAC GGA CTT C-3′) (SEQ ID NO: 7), osteocalcin (forward, 5′-CGGCCCTGAGTCTGACAAAG-3′; (SEQ ID NO: 8) reverse, 5′-CTCGTCACAAGCAGGGTCAA-3′ (SEQ ID NO: 9)). Twenty-five microliters of reaction volume included 5 μl of cDNA, 0.5 μl of 10 μM of each primer and 12.5 μl of 2×SYBR green master mix (Applied Biosystems). […]

osteocalcin mRNA = assay: BMP-2 induced osteocalcin mRNA level, quantitative real-time RT-PCR in C2C12 cells; format: cell-based, Mouse; conditions: for increase in osteocalcin mRNA by BMP-2 alone: compared to no treatment control
Description: as §1, §2, §3
Quantitative real-time RT-PCR was performed to determine the mRNA expression level of ALP and osteocalcin. The sequences of the primers were as follows: ALP (forward, 5′-TCAGGGCAATGAGGTCACATC-3′; (SEQ ID NO: 6), reverse, 5′-CAC AAT GCC CAC GGA CTT C-3′) (SEQ ID NO: 7), osteocalcin (forward, 5′-CGGCCCTGAGTCTGACAAAG-3′; (SEQ ID NO: 8) reverse, 5′-CTCGTCACAAGCAGGGTCAA-3′ (SEQ ID NO: 9)). Twenty-five microliters of reaction volume included 5 μl of cDNA, 0.5 μl of 10 μM of each primer and 12.5 μl of 2×SYBR green master mix (Applied Biosystems). Real-time PCR was performed with the following three-step protocol: step 1, 50° C. for 2 minutes; step 2, 95° C. for 10 minutes; step 3, 40 cycles of 95° C. for 15 seconds and 62° C. for 1 minute using the 7500 real-time PCR System (Applied Biosystems, Foster City, CA). To confirm the amplification specificity, the PCR products were subjected to a dissociation curve analysis. The threshold cycles (Ct) of each reaction were normalized to those obtained for 18S mRNA using the −ΔΔCt method (Applied Biosystems). All PCR reactions were performed in triplicate.
(§4) The EC50 values were calculated by determining the concentration by which 50% of maximum activity was reached using the sigmoidal fit equation. The 50% effective concentrations were determined with the standard curve analysis of SigmaPlot™ 8.02. […]

[3] = test system: alkaline phosphatase activity; assay: BMP-2 induced alkaline phosphatase (ALP) enzyme activity assay in C2C12 cells; format: cell-based, Mouse
Description: as §1
The C2C12 cells were plated at 200,000 cells/well in 6-well plates and grown overnight in DMEM containing 10% FBS. On day 2, the culture medium was replaced with DMEM containing 2% FBS and the cells were treated with various concentrations of the Smurf1-interacting compound for 24 hours. On day 3, the medium was replaced with fresh DMEM containing 2% FBS and the cells were treated with 50 ng/ml of BMP-2 with or without compound for 72 hours. The cells were washed with phosphate-buffered saline (PBS) and lysed by addition of lysis buffer (10 mM Tris-HCl pH 8.0, 1 mM MgCl2 and 0.5% Triton X-100). The cell lysates were centrifuged for 5 minutes at 13,000×g. The supernatant was removed and the aliquots were assayed for ALP activity and protein amount. The ALP activity was measured in triplicate using an ALP assay kit (Sigma-Aldrich, St. Louis, MO) in microtiter plates. The protein amount was determined with Bio-Rad™ protein assay reagent (Bio-Rad, Hercules, CA) using bovine serum albumin (BSA) as a standard. The ALP activity (nmoles of p-nitrophenol per ml) was normalized to the protein amount (nmoles of p-nitrophenol per μg).
as §4

rat model = assay: in vivo bone-formation in rat model (ectopic bone induction); conditions: without any BMP-2
C2C12 cells = assay: cell lifting / cell number observation in C2C12 reporter assay; format: cell-based, Mouse; conditions: reduced number of cells at end of experiment
Description: Compounds were tested experimentally for their ability to potentiate BMP-2 activity in our luciferase reporter assay using C2C12 cells (FIGS. 5A and 5B).

C2C12 myoblasts = assay: BMP-2 responsiveness / osteoblastic transdifferentiation of C2C12 myoblasts, multiple assays; format: cell-based, Mouse
Description: Derivatives with desired attributes can be evaluated using the procedure described below.
Compounds were selected by virtual screening for development based on computational modeling, docking, and in silico screening. […] (See Sangadala et al. (2007) Proteins 68: 690-701 and FIG. 2). The BMP-potentiating activities of compounds may be evaluated by monitoring several markers of the osteoblastic phenotype corresponding to various time points during phenotype differentiation of C2C12 cells towards terminally differentiated osteoblasts.

EC50 ([1]; Mus musculus, C2C12, calculated from the Hill plot, read-out: EC50, potentiation of BMP-2 luciferase reporter activity) [µM] | EC50 ([2]; Mus musculus, C2C12, BMP-2 20 ng/ml, estimated, read-out: EC50, expression of alkaline phosphatase mRNA) [µM] | EC50 (osteocalcin mRNA; Mus musculus, C2C12, BMP-2 20 ng/ml, estimated, read-out: EC50, expression of osteocalcin mRNA) [µM] | EC50 ([3]; Mus musculus, C2C12, BMP-2 50 ng/ml, estimated) [µM] | concentration causing lifting of some cells from the plates (C2C12 cells) | Molecule | optimum enhancement of BMP-2 induced luciferase activity ([1]; compound 1.0 μg/ml, compared to BMP-2 alone, P<0.05) [fold] | maximal increase in BMP-induced alkaline phosphatase mRNA level ([2]; BMP-2 20 ng/ml, compared to BMP-2 alone, P<0.05) [fold] | effect of compound alone on osteocalcin mRNA (osteocalcin mRNA; absence of BMP-2) | maximal increase in BMP-induced osteocalcin mRNA level (osteocalcin mRNA; compound 1.0 μg/ml, BMP-2 20 ng/ml, compared to BMP-2 alone, P<0.05) [fold] | maximal increase in BMP-2 induced ALP activity ([3]; compound 1.0 μg/ml, BMP-2 50 ng/ml, compared to BMP-2 alone, P<0.001) [fold] | bone-formation in rat model (rat model) | potentiation of BMP-2 induced transdifferentiation of C2C12 myoblasts into the osteoblastic phenotype (C2C12 myoblasts) | effective dose of compound among multiple assays (C2C12 myoblasts; C2C12 cells, BMP-2 induced markers) [µg/mL] | effect on BMP-2-induced response (C2C12 myoblasts; dose of 0.1 μg/ml) | efficacy relative to other derivatives in cell-based alkaline phosphatase assay ([3]; screening, FIG. 9) | increase in alkaline phosphatase mRNA by BMP-2 alone ([2]; absence of DMSO) [fold] | increase in alkaline phosphatase mRNA by BMP-2 alone ([2]; presence of DMSO (0.01%)) [fold] | increase in osteocalcin mRNA by BMP-2 alone (osteocalcin mRNA; absence of DMSO) [fold] | increase in osteocalcin mRNA by BMP-2 alone (osteocalcin mRNA; presence of DMSO (0.01%)) [fold]
2.6 | 1.5 to 5.3 | 1.5 to 5.3 | 3.7 | higher than 1.5 ug/ml | C=Cc1nc(N)nc(N)n1 [Compound 12, 2,4-diamino-6-vinyl-1,3,5-triazine] | 3.8 | 3.5 | no significant effect | 4.4 | 4.8 | capable of inducing bone-formation | potentiate the effects of BMP-2 | 0.275 to 1.0 | elevated the BMP-2-induced response significantly | – | – | – | – | –
– | – | – | – | – | CC1(C)N=C(N)N=C(N)N1c1ccc(Cl)cc1 [Compound 12X, 1-(4-chlorophenyl)-4,6-diamino-1,2-dihydro-2,2-dimethyl-1,3,5-triazine] | – | – | – | – | – | – | potentiate the effects of BMP-2 | – | – | more efficacious | – | – | – | –
– | – | – | – | – | BMP-2: bone morphogenetic protein, growth factor known to induce bone and cartilage formation and play a role in osteoblast differentiation (protein, listed as Homo sapiens) MVAGTRCLLALLLPQVLLGGAAGLVPELGRRKFAAASSGRPSSQPSDEVLSEFELRLLSMFGLKQRPTPSRDAVVPPYMLDLYRRHSGQPGSPAPDHRLERAASRANTVRSFHHEESLEELPETSGKTTRRFFFNLSSIPTEEFITSAELQVFREQMQDALGNNSSFHHRINIYEIIKPATANSKFPVTRLLDTRLVNQNASRWESFDVTPAVMRWTAQGHANHGFVVEVAHLEEKQGVSKRHVRISRSLHQDEHSWSQIRPLLVTFGHDGKGHPLHKREKRQAKHKQRKRLKSSCKRHPLYVDFSDVGWNDWIVAPPGYHAFYCHGECPFPLADHLNSTNHAIVQTLVNSVNSKIPKACCVPTELSAISMLYLDENEKVVLKNYQDMVVEGCGCR | – | – | – | – | – | – | – | – | – | – | 43 | 51 | 9 | 7
